Measured values reported in ChEMBL document CHEMBL5260833, “An overview of quinazolines: Pharmacological significance and recent developments” (Eur J Med Chem, 2018).

What was measured:
Rattus norvegicus = assay: Inhibition of AII induced mean arterial blood pressure in rat assessed as vasoconstrictor at 1 mg/kg, po; format: functional
Thymidylate synthase = Thymidylate synthase (Homo sapiens, UniProt P04818); assay: Inhibition of human TS
[1] = Inhibition of Lacticaseibacillus casei TS

Thymidylate synthase, sequence (P04818 whole entry): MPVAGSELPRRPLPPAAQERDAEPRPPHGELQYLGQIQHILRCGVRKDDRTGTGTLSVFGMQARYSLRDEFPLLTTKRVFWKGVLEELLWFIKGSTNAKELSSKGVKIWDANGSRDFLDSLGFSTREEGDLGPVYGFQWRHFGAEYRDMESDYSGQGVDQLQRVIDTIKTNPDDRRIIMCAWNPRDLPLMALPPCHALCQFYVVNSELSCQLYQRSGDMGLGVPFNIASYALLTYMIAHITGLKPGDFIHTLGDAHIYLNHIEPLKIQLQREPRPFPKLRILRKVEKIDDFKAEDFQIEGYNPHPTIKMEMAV

Row | SMILES | Activity (Rattus norvegicus) [mmHg] | IC50 (Thymidylate synthase) [nM] | IC50 [1] [nM]
1 | CCCCc1nc2ccc([C@H]3C[C@H]4CC[C@H](C)N4O3)cc2c(=O)n1Cc1ccc(-c2ccccc2-c2nnn[nH]2)cc1 | 55 |  | 
2 | CCCCc1nc2ccc([C@H]3C[C@@]4(C)CCCCN4O3)cc2c(=O)n1Cc1ccc(-c2ccccc2-c2nnn[nH]2)cc1 | 55 |  | 
3 | CCCCc1nc2ccc([C@@]3(CO)C[C@H]4CCCN4O3)cc2c(=O)n1Cc1ccc(-c2ccccc2-c2nnn[nH]2)cc1 | 55 |  | 
4 | Cc1ccc2nc(N)[nH]c(=O)c2c1Sc1ccc(C(=O)N[C@H](CO)c2ccccc2)cc1 |  | 3 | 200
5 | CCCCc1nc2ccc([C@@]3(c4ccccc4)C[C@H]4CCCN4O3)cc2c(=O)n1Cc1ccc(-c2ccccc2-c2nnn[nH]2)cc1 | 55 |  | 
6 | COC(=O)[C@H](Cc1c[nH]c2ccccc12)NC(=O)c1ccc(Sc2c(C)ccc3nc(N)[nH]c(=O)c23)cc1 |  | 3 | 200
7 | Cc1ccc2nc(N)[nH]c(=O)c2c1Sc1ccc(C(=O)N[C@@H](Cc2ccccc2)C(=O)O)cc1 |  | 3 | 200
8 | CCCCc1nc2ccc([C@]3(C)C[C@H]4CCCCN4O3)cc2c(=O)n1Cc1ccc(-c2ccccc2-c2nn[nH]n2)cc1 | 55 |  | 
9 | COC(=O)[C@H](Cc1ccc(O)cc1)NC(=O)c1ccc(Sc2c(C)ccc3nc(N)[nH]c(=O)c23)cc1 |  | 3 | 200
10 | CCCCc1nc2ccc([C@]3(C)C[C@H]4CCCN4O3)cc2c(=O)n1Cc1ccc(-c2ccccc2-c2nn[nH]n2)cc1 | 55 |  | 
11 | COC(=O)[C@H](NC(=O)c1ccc(Sc2c(C)ccc3nc(N)[nH]c(=O)c23)cc1)c1ccccc1 |  | 3 | 200
12 | CCCCc1nc2ccc([C@]3(CC)C[C@H]4CCCN4O3)cc2c(=O)n1Cc1ccc(-c2ccccc2-c2nn[nH]n2)cc1 | 55 |  | 
13 | Cc1ccc2nc(N)nc(O)c2c1Sc1ccc(C(=O)N[C@H](C(=O)O)c2ccccc2)cc1 |  | 3 | 200
14 | COC(=O)c1cccc([C@H](NC(=O)c2ccc(Sc3c(C)ccc4nc(N)nc(O)c34)cc2)C(=O)OC)c1 |  | 3 | 200
15 | COC(=O)[C@H](Cc1ccc(O)c(O)c1)NC(=O)c1ccc(Sc2c(C)ccc3nc(N)[nH]c(=O)c23)cc1 |  | 3 | 200
16 | CCCCc1nc2ccc([C@@]3(C)C[C@H]4CCCCN4O3)cc2c(=O)n1Cc1ccc(-c2ccccc2-c2nn[nH]n2)cc1 | 55 |  | 
17 | Cc1ccc2nc(N)[nH]c(=O)c2c1Sc1ccc(C(=O)N[C@H](C)c2ccccc2)cc1 |  | 3 | 200
18 | CCCCc1nc2ccc([C@H]3C[C@H]4CCCN4O3)cc2c(=O)n1Cc1ccc(-c2ccccc2-c2nnn[nH]2)cc1 | 55 |  | 
19 | Cc1ccc2nc(N)nc(O)c2c1Sc1ccc(C(=O)N[C@H](C(=O)O)c2cccc(C(=O)O)c2)cc1 |  | 3 | 200
20 | CCCCc1nc2ccc([C@@]3(C(=O)N4CCCCC4)C[C@H]4CCCN4O3)cc2c(=O)n1Cc1ccc(-c2ccccc2-c2nnn[nH]2)cc1 | 55 |  | 
21 | COC(=O)[C@@H](NC(=O)c1ccc(Sc2c(C)ccc3nc(N)nc(O)c23)cc1)c1ccccc1 |  | 3 | 200
22 | Cc1ccc2nc(N)[nH]c(=O)c2c1Sc1ccc(C(=O)Nc2cccc(C(=O)O)c2)cc1 |  | 3 | 200
23 | COC(=O)[C@@H](NC(=O)c1ccc(Sc2c(C)ccc3nc(N)nc(O)c23)cc1)c1cccc(O)c1 |  | 3 | 200
24 | Cc1ccc2nc(N)nc(O)c2c1Sc1ccc(C(=O)N[C@H](C(=O)O)c2cccc(O)c2)cc1 |  | 3 | 200
25 | COC(=O)[C@@H](NC(=O)c1ccc(Sc2c(C)ccc3nc(N)[nH]c(=O)c23)s1)c1ccccc1 |  | 3 | 200
26 | COC(=O)[C@H](Cc1ccc(N)cc1)NC(=O)c1ccc(Sc2c(C)ccc3nc(N)[nH]c(=O)c23)cc1 |  | 3 | 200
